For series [1], the system named is NFkB reporter gene activity. Description: NFkB reporter gene assay in THP1-XBlue stable cell line. The series is classed as cell-based. Conditions: read-out: inhibition (IC50) of NFkB reporter gene activity.
Series [2] deals with T1, IRAK4 (Homo sapiens, UniProt Q9NWZ3).
T1 sequence (Q9NWZ3 1-460): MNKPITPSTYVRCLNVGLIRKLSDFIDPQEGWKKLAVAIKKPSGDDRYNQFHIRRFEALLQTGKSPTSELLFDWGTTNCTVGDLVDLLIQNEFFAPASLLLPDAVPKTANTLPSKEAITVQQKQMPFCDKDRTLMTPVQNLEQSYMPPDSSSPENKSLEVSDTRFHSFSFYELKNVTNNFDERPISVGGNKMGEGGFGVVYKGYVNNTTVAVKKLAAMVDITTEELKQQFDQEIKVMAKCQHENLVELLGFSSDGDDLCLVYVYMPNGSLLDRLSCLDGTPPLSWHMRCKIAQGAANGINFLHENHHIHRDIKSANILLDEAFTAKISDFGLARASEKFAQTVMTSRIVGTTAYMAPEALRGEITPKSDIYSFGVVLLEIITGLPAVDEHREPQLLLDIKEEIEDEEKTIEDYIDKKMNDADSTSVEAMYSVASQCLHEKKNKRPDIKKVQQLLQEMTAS
Description: Surface plasmon resonance (SPR) binding affinity to IRAK4. As to the method: Next, the binding affinity of each of the synthesized thiopeptides (14 types excluding IR1-ct and IR15-ct in Figure 8) to the target IRAK4 and TLR10 was examined using surface plasmon resonance (SPR). […] Next, using an ADP-Glo-based kinase inhibition assay, the IC50 values of 4 types of thiopeptides for IRAK4 excluding IR1-ct and IR15-ct were evaluated.

Series [3] is described as follows: Metabolic stability in human serum at 37°C, LC/MS. The series is classed as in vitro ADME. On the procedure:
The compounds were incubated with a human serum at 37°C, and the amount of the residual test substance at various points in time was quantified by LC/MS with respect to an internal standard substance. […] Next, it was examined whether or not the half-lives of the compounds were affected by the reactivity of the Dha residue. The Dha residue may be conjugated with various serum thiols.
In addition, the metabolic stability of all of the 14 types of candidate thiopeptides was examined. The compound was incubated with the human serum at 37°C, and the amount of the residual thiopeptide at various points in time was quantified by LC/MS with respect to the internal standard substance. The half-life of the thiopeptide for TLR10 was generally as long as 38.2 hours, and the thiopeptide was stable.

Series [4] deals with TNIK (Homo sapiens, UniProt Q9UKE5). Briefly: Surface plasmon resonance (SPR) binding affinity to TNIK. Conditions: ATP 1 mM, 15-fold higher than KM. An excerpt: Surface plasmon resonance (SPR) was used to evaluate the binding affinity of the thiopeptide synthesized in Example 2 to TNIK.

*1 amine or outer side, *2 acyl side, *3 side chain or, on linkers, in order; H or OH if unused. Where a SMILES comes first, the peptide text is derived from it. Bridges are numbered along the chain shown (N, C = ends). [ ]: non-standard residue; d: D form. The star is where a group is joined. X2 = C=C(N[*:2])c1nc(-c2nc(-c3nc(C(=O)NCCC(=O)NCCOCCOCCCCCCCl)cs3)ccc2C(=O)[*:1])cs1; X1 = C=C(N[*:2])c1nc(-c2nc(-c3nc(C(=O)OC)cs3)ccc2C(=O)[*:1])cs1; Nle = CCCC[C@H](N)C(=O)O; Dhb = C/C=C(\N)C(=O)O; Cam = NC(=O)C*

Sequence of TNIK (Q9UKE5 whole entry): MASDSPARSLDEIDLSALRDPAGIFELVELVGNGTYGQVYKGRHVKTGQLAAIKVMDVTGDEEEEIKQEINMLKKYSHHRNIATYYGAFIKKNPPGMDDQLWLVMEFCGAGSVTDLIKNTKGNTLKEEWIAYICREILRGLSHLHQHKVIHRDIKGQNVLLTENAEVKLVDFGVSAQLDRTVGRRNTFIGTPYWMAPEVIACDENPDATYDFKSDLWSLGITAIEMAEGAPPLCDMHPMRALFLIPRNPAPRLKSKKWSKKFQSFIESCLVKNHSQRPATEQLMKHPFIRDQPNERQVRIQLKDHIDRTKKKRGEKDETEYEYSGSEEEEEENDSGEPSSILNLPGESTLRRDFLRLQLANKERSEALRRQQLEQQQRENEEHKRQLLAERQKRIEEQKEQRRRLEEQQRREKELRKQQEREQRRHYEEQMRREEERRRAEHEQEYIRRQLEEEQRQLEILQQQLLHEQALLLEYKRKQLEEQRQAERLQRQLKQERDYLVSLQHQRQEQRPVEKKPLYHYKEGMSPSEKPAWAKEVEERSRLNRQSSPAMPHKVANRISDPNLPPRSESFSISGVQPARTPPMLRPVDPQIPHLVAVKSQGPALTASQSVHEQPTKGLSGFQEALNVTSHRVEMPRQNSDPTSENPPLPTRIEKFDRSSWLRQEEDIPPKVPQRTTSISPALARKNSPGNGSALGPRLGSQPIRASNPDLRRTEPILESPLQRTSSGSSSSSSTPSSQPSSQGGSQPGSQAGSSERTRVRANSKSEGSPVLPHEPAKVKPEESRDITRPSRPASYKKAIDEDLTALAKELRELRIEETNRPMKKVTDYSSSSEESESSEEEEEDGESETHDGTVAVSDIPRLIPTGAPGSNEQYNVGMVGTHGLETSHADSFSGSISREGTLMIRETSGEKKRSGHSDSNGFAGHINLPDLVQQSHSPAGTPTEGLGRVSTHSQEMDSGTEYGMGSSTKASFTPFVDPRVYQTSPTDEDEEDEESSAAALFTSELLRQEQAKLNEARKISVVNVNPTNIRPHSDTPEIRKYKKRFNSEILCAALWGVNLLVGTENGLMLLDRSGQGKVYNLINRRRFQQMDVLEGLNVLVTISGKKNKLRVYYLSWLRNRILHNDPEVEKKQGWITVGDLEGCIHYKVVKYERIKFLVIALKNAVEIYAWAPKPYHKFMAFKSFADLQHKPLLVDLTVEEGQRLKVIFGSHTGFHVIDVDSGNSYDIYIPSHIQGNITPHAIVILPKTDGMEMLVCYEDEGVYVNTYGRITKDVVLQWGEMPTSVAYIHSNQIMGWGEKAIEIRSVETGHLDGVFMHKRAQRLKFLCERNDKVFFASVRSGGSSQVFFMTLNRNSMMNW

In the case of `C=C1NC(=O)[C@H](CCCCN)NC(=O)[C@H](Cc2ccc(O)cc2)NC(=O)[C@H]([C@@H](C)CC)NC(=O)[C@H](CCCNC(=N)N)NC(=O)[C@H](CCCNC(=N)N)NC(=O)[C@H](CCCCN)NC(=O)[C@H](Cc2ccccc2)NC(=O)[C@H](CC(C)C)NC(=O)[C@H](CCSC)NC(=O)[C@H](CO)NC(=O)[C@H](Cc2c[nH]c3ccccc23)NC(=O)c2ccc(-c3nc(C(=O)NCCC(=O)NCCOCCOCCCCCCCl)cs3)nc2-c2csc1n2` [IR1-ct] (WSMLFKRRIYK; linker N-C via X2), the IC50 in series [1] turned out to be 7.8 µM.

For the compound `C=C1NC(=O)[C@H](CCCCN)NC(=O)[C@H](Cc2ccc(O)cc2)NC(=O)[C@H]([C@@H](C)CC)NC(=O)[C@H](CCCNC(=N)N)NC(=O)[C@H](CCCNC(=N)N)NC(=O)[C@H](CCCCN)NC(=O)[C@H](Cc2ccccc2)NC(=O)[C@H](CC(C)C)NC(=O)[C@H](CCSC)NC(=O)[C@H](CO)NC(=O)[C@H](Cc2c[nH]c3ccccc23)NC(=O)c2ccc(-c3nc(C(=O)OC)cs3)nc2-c2csc1n2` [IR1] (WSMLFKRRIYK; linker N-C via X1), the Kd in series [2] is 0.0013 µM. That is a single-digit nanomolar value.

In the case of `C=C1NC(=O)/C(=C/C)NC(=O)[C@H](Cc2c[nH]c3ccccc23)NC(=O)[C@H](Cc2c[nH]cn2)NC(=O)[C@H](Cc2c[nH]c3ccccc23)NC(=O)[C@H]([C@@H](C)O)NC(=O)[C@H]([C@@H](C)CC)NC(=O)[C@H](Cc2ccccc2)NC(=O)[C@H](CCC(N)=O)NC(=O)[C@H](CCCNC(=N)N)NC(=O)[C@H](CCCCN)NC(=O)[C@H](CCCC)NC(=O)[C@H](CO)NC(=O)[C@H](Cc2c[nH]c3ccccc23)NC(=O)c2ccc(-c3nc(C(=O)NCCC(=O)NCCOCCOCCCCCCCl)cs3)nc2-c2csc1n2` [IR15-ct] (WS[Nle]KRQFITWHW[Dhb]; linker N-C via X2), the IC50 in series [1] amounted to 7 µM.

For the compound `C=C1NC(=O)[C@H](CO)NC(=O)[C@H](CSCC(N)=O)NC(=O)CNC(=O)[C@H](Cc2ccc(O)cc2)NC(=O)[C@H](C)NC(=O)[C@H](CO)NC(=O)[C@H](CC(=O)O)NC(=O)CNC(=O)[C@H](CC(C)C)NC(=O)[C@H](Cc2c[nH]c3ccccc23)NC(=O)[C@H](Cc2c[nH]c3ccccc23)NC(=O)c2ccc(-c3nc(C(=O)OC)cs3)nc2-c2csc1n2` [TP4] (WWLGDSAYGC(Cam)S; linker N-C via X1), the “half-life (τ1/2) in human serum” value in series [3] came to 88 h.

`C=C1NC(=O)CNC(=O)[C@H](CC(N)=O)NC(=O)[C@H](CC(C)C)NC(=O)CNC(=O)[C@H](CCCCN)NC(=O)[C@H](C)NC(=O)[C@H]([C@@H](C)CC)NC(=O)[C@H](CO)NC(=O)[C@H](Cc2c[nH]c3ccccc23)NC(=O)[C@H](C)NC(=O)[C@H](Cc2c[nH]c3ccccc23)NC(=O)c2ccc(-c3nc(C(=O)OC)cs3)nc2-c2csc1n2` [TP8] (WAWSIAKGLNG; linker N-C via X1): in series [3], the “half-life (τ1/2) in human serum” value came to 14 h. For the same compound, the “binding to TNIK in the presence of the saturated concentration of ATP” value in series [4] is given as “bonded to TNIK”.

These data come from patent EP4596566A1, “COMPOUND PRODUCTION METHOD” (The University of Tokyo, priority 2022, dated 2024).
